Here are results for 14 molecules from article PMC6356585 (Viruses, 2018).

Counter-ions that a name gives are not always drawn. Like-named read-outs stand apart in the source and are kept apart here.

One data set relates to ZIKV IbH. The data set is described as follows: Autophagy compound screen in Vero cells infected with ZIKV IbH. It counts as cell-based, Zika virus. The conditions noted are these: African-lineage ZIKV IbH, 10 µM.
The subject of data set [1] is autophagic vesicles in Vero cells. As to the kind of experiment: Autophagy detection (CYTO-ID) in Vero cells. It is filed as cell-based. The conditions noted are these: 10 µM compound, 24 h, CYTO-ID green MFI vs DMSO control.
Data set [2] relates to ZIKV SPH. The data set is described as follows: Autophagy compound library screen, ZIKV SPH titer (TCID50) in C6/36 cells. It counts as cell-based, Zika virus. As to conditions: for activity at 10 µM: Zika virus, read-out: ZIKV SPH Relative Titer in C6/36 Cells.
Data set [3] relates to ZIKV SPH. The data set is described as follows: Time-of-addition assay in Vero cells. As to conditions: Vero, 24 hpi. It is filed as cell-based, Zika virus.
For data set [4], the system named is ZIKV SPH. The data set is described as follows: Autophagy compound library screen, ZIKV SPH titer (TCID50) in Vero cells. It is filed as cell-based, Zika virus. The conditions noted are these: for activity at 10 µM: Zika virus, Vero, read-out: ZIKV SPH Relative Titer in Vero Cells.
The subject of the next data set is ZIKV. The arrangement: method as in ref 12 = [12]. The conditions noted are these: cited from earlier work.
A further data set has as its system Vero cells. The data set is described as follows: Cell viability (CellTiter-Glo) of Vero cells. It is filed as cell-based. Background: Cellular ATP, detected with luciferase, serves as a proxy for viable cell number.
Another data set has as its system C6/36 cells. It is filed as cell-based, Ae. albopictus.
[5] abbreviates: C6/36, 10 µM compound, MOI 0.1, 96 h, TCID50, ± SEM, three independent trials.
[6] abbreviates: 10 µM compound, MOI 0.1, 40 h, TCID50, ± SEM, three independent trials.
[7] abbreviates: 10 µM compound, MOI 0.1, 96 h, TCID50, ± SEM, three independent trials.
[8] abbreviates: 10 µM compound, 96 h, CellTiter-Glo, ± SEM, three independent trials.
The mark [9] stands for this setting: 10 µM compound, 40 h, CellTiter-Glo, ± SEM, three independent trials.

Consider `CCCCc1oc2ccccc2c1C(=O)c1cc(I)c(OCCN(CC)CC)c(I)c1` [Amiodarone HCl], for which the “ZIKV IbH titer in Vero cells compared to control” value with ZIKV IbH is recorded as “reduced ZIKV IbH titers”. Besides, in data set [1], the “Autophagy Activity Factor (AAF)” value is on record as 60.40. Further, in the data set on ZIKV SPH [2] (setting [5]), the activity at 10 µM was found to be 2 ± 0.5%.

Take `Cl.N` [Ammonium chloride]: the “ZIKV replication, time-of-addition” value was “less inhibitory” with ZIKV SPH [3] (30 mM ammonium chloride added later in infection); “inhibited ZIKV replication” in the data set with ZIKV SPH [3] (30 mM ammonium chloride, 2 h prior to infection and at the time of infection).

For `CCN(CCO)CCCC(C)Nc1ccnc2cc(Cl)ccc12` (stereo not drawn) [Hydroxychloroquine], the “ZIKV SPH Relative Titer in Vero Cells” value in the data set with ZIKV SPH [4] (setting [6]) is “decreased titers”. In addition, the “ZIKV spread in a mouse model” value with ZIKV is recorded as “blocked ZIKV spread”. Also, the “ZIKV SPH Relative Titer in C6/36 Cells” value in the data set on ZIKV SPH [2] (setting [7]) is on record as “decreased titers”. In addition, the activity at 10 µM with ZIKV SPH [2] (setting [5]) turned out to be 25.1 ± 12.6%. In addition, the “Vero Viability” value in the data set with Vero cells (10 µM) is on record as 85.3 ± 8.4% of untreated control. Further, the “C6/36 Viability” value in the data set on C6/36 cells (10 µM) was 35 ± 9.7% of untreated control.

For the molecule `C=CC(C)(C)c1cc(/C=C/C(=O)c2ccc(O)cc2)c(OC)cc1O` [Licochalcone A], the “ZIKV SPH Relative Titer in Vero Cells” value is 7.2 ± 2.9% of untreated control with ZIKV SPH [4] (setting [6]) and “below 10% of untreated control” in the data set with ZIKV SPH [4] (10 µM compound, MOI 0.1, 40 h, TCID50, ± SEM, three independent trials, listed as licochalcone A). Besides, in the data set with ZIKV IbH, the “ZIKV IbH titer in Vero cells compared to control” value is reported as “reduced ZIKV IbH titers”. Besides, the “Autophagy Activity Factor (AAF)” value in data set [1] worked out at 12.33. Besides, the “ZIKV SPH Relative Titer in C6/36 Cells” value in the data set on ZIKV SPH [2] (setting [7]) is on record as 51.8 ± 28.5% of untreated control. For the same molecule, the “Vero Viability” value is on record as 100.7 ± 9.4% of untreated control with Vero cells (10 µM compound, 40 h, CellTiter-Glo, ± SEM, three independent trials, 10 µM) and “above 80% of untreated control” with Vero cells (10 µM compound, 40 h, CellTiter-Glo, ± SEM, three independent trials, listed as licochalcone A, 10 µM). Besides, the “C6/36 Viability” value in the data set on C6/36 cells (setting [8]) is 43 ± 2% of untreated control.

As for `CO[C@H]1C[C@@H]2CC[C@@H](C)[C@@](O)(O2)C(=O)C(=O)N2CCCC[C@H]2C(=O)O[C@H]([C@H](C)C[C@@H]2CC[C@@H](O)[C@H](OC)C2)CC(=O)[C@H](C)/C=C(\C)[C@@H](O)[C@@H](OC)C(=O)[C@H](C)C[C@H](C)/C=C/C=C/C=C/1C` [Rapamycin], in the data set with ZIKV SPH [4] (setting [6]), the “ZIKV SPH Relative Titer in Vero Cells” value is recorded as “increased ZIKV titers”. In addition, the “Autophagy Activity Factor (AAF)” value in data set [1] worked out at 7.74. Moreover, the “ZIKV SPH Relative Titer in C6/36 Cells” value in the data set on ZIKV SPH [2] (setting [7]) is “slightly decreased production”; in the data set on ZIKV SPH [2] (10 µM compound, MOI 0.1, 96 h, TCID50, ± SEM, three independent trials, listed as rapamycin), “slightly decreased titers”. Moreover, the activity at 10 µM in the data set with ZIKV SPH [2] (setting [5]) worked out at 75.7 ± 47.7%. Moreover, the “Vero Viability” value in the data set on Vero cells (10 µM) is 66.0 ± 2.6% of untreated control. Besides, the “C6/36 Viability” value in the data set on C6/36 cells (10 µM) was 59 ± 7.3% of untreated control.

Consider `C=CCNc1ncnc2ccc(Br)cc12` [SMER28], for which the “ZIKV SPH Relative Titer in Vero Cells” value in the data set with ZIKV SPH [4] (setting [6]) is 65.0 ± 5.6% of untreated control. In addition, in the data set with ZIKV SPH [2] (setting [7]), the “ZIKV SPH Relative Titer in C6/36 Cells” value is reported as 38.7 ± 12.2% of untreated control. For the same molecule, the “Vero Viability” value with Vero cells (setting [9]) is given as 92.7 ± 3.5% of untreated control. Also, the “C6/36 Viability” value with C6/36 cells (setting [8]) is 36 ± 5.3% of untreated control.

For `Cc1cccc(Nc2nc(-c3ccncc3)cs2)c1` [STF-62247], the “ZIKV SPH Relative Titer in Vero Cells” value with ZIKV SPH [4] (setting [6]) is given as 45.0 ± 21.4% of untreated control. Further, the “ZIKV SPH Relative Titer in C6/36 Cells” value in the data set on ZIKV SPH [2] (setting [7]) is 169.8 ± 45.9% of untreated control. Besides, in the data set on Vero cells (setting [9]), the “Vero Viability” value is listed as 77.3 ± 11.7% of untreated control. Besides, the “C6/36 Viability” value in the data set on C6/36 cells (setting [8]) is listed as 49 ± 9.3% of untreated control.

In the case of `CNC(=O)c1cc(Oc2ccc(NC(=O)Nc3ccc(Cl)c(C(F)(F)F)c3)cc2)ccn1` [Sorafenib tosylate], the activity at 10 µM in the data set on ZIKV SPH [4] (setting [6]) amounted to 5.8 ± 1.8%; in the data set with ZIKV SPH [2] (setting [5]), 9.4 ± 8.8%. In addition, in the data set on Vero cells (setting [9]), the “Vero Viability” value is on record as 58.3 ± 9.9% of untreated control. The “C6/36 Viability” value in the data set on C6/36 cells (setting [8]) is recorded as 23 ± 8.8% of untreated control.

On to `Cc1ccc(C(=O)Nc2ccc(S(=O)(=O)[O-])c3cc(S(=O)(=O)[O-])cc(S(=O)(=O)[O-])c23)cc1NC(=O)c1cccc(NC(=O)Nc2cccc(C(=O)Nc3cc(C(=O)Nc4ccc(S(=O)(=O)[O-])c5cc(S(=O)(=O)[O-])cc(S(=O)(=O)[O-])c45)ccc3C)c2)c1.[Na+].[Na+].[Na+].[Na+].[Na+].[Na+]` [Suramin·6Na], for which, in the data set on ZIKV SPH [4] (setting [6]), the “ZIKV SPH Relative Titer in Vero Cells” value is 107.4 ± 44.8% of untreated control. Also, the “ZIKV SPH Relative Titer in C6/36 Cells” value with ZIKV SPH [2] (setting [7]) is listed as 86.6 ± 23.2% of untreated control. Also, the “Vero Viability” value in the data set with Vero cells (10 µM) was 92.0 ± 1.2% of untreated control. Also, in the data set with C6/36 cells (setting [8]), the “C6/36 Viability” value was 86 ± 8.4% of untreated control.

Consider `O=C(CC(=O)C(F)(F)F)c1cccs1` [TTFA], for which, in the data set with ZIKV SPH [4] (setting [6]), the “ZIKV SPH Relative Titer in Vero Cells” value was 24.4 ± 7.6% of untreated control. Further, in the data set on ZIKV SPH [2] (setting [7]), the “ZIKV SPH Relative Titer in C6/36 Cells” value is on record as 72.8 ± 9.6% of untreated control. Moreover, in the data set on Vero cells (setting [9]), the “Vero Viability” value is 90.0 ± 3.5% of untreated control. In addition, the “C6/36 Viability” value with C6/36 cells (setting [8]) is reported as 78 ± 19.9% of untreated control.

As for `OC[C@H]1O[C@H](O[C@H]2O[C@H](CO)[C@@H](O)[C@H](O)[C@H]2O)[C@H](O)[C@@H](O)[C@@H]1O` [Trehalose], the “ZIKV SPH Relative Titer in Vero Cells” value in the data set on ZIKV SPH [4] (setting [6]) is “not able to reduce ZIKV titers”. In addition, the “ZIKV SPH Relative Titer in C6/36 Cells” value in the data set with ZIKV SPH [2] (setting [7]) was “not able to reduce ZIKV titers”. Further, the activity at 10 µM with ZIKV SPH [2] (setting [5]) came to 246 ± 101%. In the data set on Vero cells (10 µM), the “Vero Viability” value is recorded as 97.7 ± 1.5% of untreated control. The “C6/36 Viability” value in the data set on C6/36 cells (10 µM) was 99 ± 2.9% of untreated control.

Consider `CN1CCN(CCCN2c3ccccc3Sc3ccc(C(F)(F)F)cc32)CC1.Cl.Cl` [Trifluoperazine·2HCl], for which the “ZIKV SPH Relative Titer in Vero Cells” value in the data set on ZIKV SPH [4] (setting [6]) is on record as 2.8 ± 0.7% of untreated control. Moreover, the “ZIKV SPH Relative Titer in C6/36 Cells” value in the data set with ZIKV SPH [2] (setting [7]) is given as 0.3 ± 0.3% of untreated control. In addition, the “Vero Viability” value in the data set with Vero cells (10 µM) is recorded as 51.0 ± 22.1% of untreated control. The “C6/36 Viability” value with C6/36 cells (setting [8]) is 10 ± 3.8% of untreated control.

As for `COC[C@H]1OC(=O)c2coc3c2[C@@]1(C)C1=C(C3=O)[C@@H]2CCC(=O)[C@@]2(C)C[C@H]1OC(C)=O` [Wortmannin], the activity at 10 µM in the data set on ZIKV SPH [4] (40 h) came to 46.9 ± 9%; with ZIKV SPH [2] (C6/36, 96 h), 190 ± 57.8%. Also, in the data set with Vero cells (setting [9]), the “Vero Viability” value was 79.0 ± 3.1% of untreated control. In addition, the “C6/36 Viability” value in the data set on C6/36 cells (10 µM) is reported as 105 ± 5.5% of untreated control.

For the molecule Tunicamycin, the “ZIKV SPH Relative Titer in Vero Cells” value with ZIKV SPH [4] (setting [6]) is on record as 0.5 ± 0.5% of untreated control. Also, the “ZIKV SPH Relative Titer in C6/36 Cells” value in the data set on ZIKV SPH [2] (setting [7]) was 1.8 ± 0.8% of untreated control. The “Vero Viability” value with Vero cells (setting [9]) is reported as 56.3 ± 8.7% of untreated control. For the same molecule, the “C6/36 Viability” value in the data set on C6/36 cells (setting [8]) was 47 ± 7.6% of untreated control.
